Experimental data published in US6740743B2, “Scorpian toxins” (E. I. du Pont de Nemours and Company, priority 1999, dated 2004).

B1: ibj1c.pk0002.f9 (protein)
chain: MKFLYGIILIALFLTVMIATHSEARCPNCFTTNPNAEADCKKCCGNRWGKCAGYQCVCPMK

Tests used:
[1] = system: Heliothis virescens larvae; assay: Feeding bioassay of recombinant baculoviruses expressing the scorpion peptides on Heliothis virescens larvae; type: in vivo; settings: four 5-day-old larvae fed 200 mg viral-contaminated diet; symptoms examined 4, 5, 6 and 7 days after fresh diet added
From the text: It has been shown that single amino acids residues are important for receptor binding and for biological activity of K-channel toxins (Sabatier et al. (1994) Int. J. Peptide Protein Res. 43:486-495). The cDNAs described herein were cloned into baculoviruses and used to test their activity against Lepidopteran.
The DNA encoding the peptides was amplified by performing PCR and adding a Bgl II restriction site at the 5′ end and an Eco RI site at the 3′ end to allow cloning into the baculovirus transfer vector pAcUW21 (BD Biosciences-PharMingen, San Diego, Calif.). After amplification in E. coli the presence of the appropriate fragments was confirmed by restriction enzyme analysis. Colonies containing the appropriate fragments were isolated, propagated, and plasmid DNA was prepared for lipofectin-mediated co-transfection into insect cells with linearized polyhedrin-negative AcNPV. Co-transfections were performed essentially as described in Example 7. Polyhedrin-positive recombinant viruses were isolated employing standard plaque purification protocols and were mixed with a plug of HV diet (www.Bio-Serv.com) and fed to Heliothis virescens larvae.
Depicted in Table 3 are the results from two independent experiments in which four 5-day-old larvae were fed 200 mg of viral-contaminated diet. The larvae were allowed to eat for 2 days or until the viral-contaminated diet was consumed, then fresh 1 g diet plugs were added to allow continued feeding.

[2] = system: Ca+2-activated K-channels and voltage-dependent K-channel (K(v) 1.3); settings: Maxi-K, medium- and small-conductance Ca+2-activated K-channels and K(v) 1.3; cited from earlier work

Row | Molecule | Activity of Scorpion Potassium Channel Modifiers on Heliothis virescens Larvae, Experiment 1 [1] | Activity of Scorpion Potassium Channel Modifiers on Heliothis virescens Larvae, Experiment 2 [1] | Potency of channel inhibition [2]
1 | ibj1c.pk006.i20: Buthotus judaicus scorpion kaliotoxin 2 precursor homolog; mature toxin amino acids 23-61 of SEQ ID NO:4, expressed from recombinant baculovirus (QYELDVTCMGGADNCVKPCYDKYGTTKTKCINDRCNCYP) | Slightly Active | Slightly Active | –
2 | ibj1c.pk009.i6: Buthotus judaicus scorpion kaliotoxin 2 precursor homolog; mature toxin amino acids 23-59 of SEQ ID NO:6, expressed from recombinant baculovirus (QVETNVKCTGGSCASTCKRVIGVAAGKCINGRCVCYP) | Slightly Active | Slightly Active | –
3 | ibj1c.pk005.n9: Buthotus judaicus scorpion potassium channel blocking toxin 15-1 homolog; mature toxin amino acids 23-58 of SEQ ID NO:18, expressed from recombinant baculovirus (DLIDVKCISSQECWIACKKVTGRFQGKCQNKQCRCY) | Slightly Active | Slightly Active | –
4 | charybdotoxin [ChTX] | – | – | in the low nanomolar range
5 | ibj1c.pk006.h8: Buthotus judaicus scorpion potassium channel blocking toxin 15-1 homolog; mature toxin amino acids 23-58 of SEQ ID NO:16, expressed from recombinant baculovirus (GLIDVRCSASRECWEACRKVTGSGQGKCQNNQCRCY) | Slightly Active | Active (scored as active if the larvae became irritated and had contractions and died) | –
6 | ibj1c.pk007.k8: Buthotus judaicus scorpion cobatoxin 1 homolog; mature toxin amino acids 22-58 of SEQ ID NO:2, expressed from recombinant baculovirus (NFKVEAAQCYSSDCRVKCAAMGFNSGKCINSKCKCYK) | Slightly Active | Slightly Active | –
7 | ibj1c.pk007.c13: Buthotus judaicus scorpion leiurotoxin I homolog; mature toxin amino acids 38-70 of SEQ ID NO:12, expressed from recombinant baculovirus (AFCNLRRCQLICRESGLLGKCIGDRCECVPHGK) | Slightly Active | Slightly Active | –
8 | ibj1c.pk005.e21: Buthotus judaicus scorpion leiuropeptide III homolog; mature toxin amino acids 31-59 of SEQ ID NO:10, expressed from recombinant baculovirus (VGCEDCPEHCSQQNARAKCENDKCVCEPK) | Slightly Active | Active (scored as active if the larvae became irritated and had contractions and died) | –
9 | ibj1c.pk008.d3: Buthotus judaicus scorpion leiuropeptide I homolog; mature toxin amino acids 29-56 of SEQ ID NO:8, expressed from recombinant baculovirus (VDCEECPFHCAGKNAIPTCDDGECNCNV) | Slightly Active | Slightly Active | –
10 | B1 | Slightly Active | Slightly Active | –
